Laboratory results taken from PubChem BioAssay (NCI).
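Growth conditions: 96-well plates. Treatment: test compound, 48 hours, 5 concentrations. Analysis: linear interpolation between bracketing concentrations; unreached endpoints set to highest concentration. GI50 is the concentration that inhibits growth by half. TGI denotes the concentration required for complete inhibition of growth.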 Activity calls are given as the source filed them. Rule as the data show it: active = GI50 below about 0.43 µM; inactive = the rest.

The compounds below were run on RXF-631 renal (assay: NCI-60 cell line screen, 48 h).
In the case of `CC(C)(C)c1cc(C(OCCl)(C(F)(F)F)C(F)(F)F)c2c(c1)C(C(F)(F)F)(C(F)(F)F)OC21c2ccccc2C(=O)c2ccccc21`, the TGI is reported as over 100 µM.
For `C1=C(c2ccccc2)C(OC2Oc3ccccc3C=C2c2ccccc2)Oc2ccccc21` (stereo unspecified), the TGI was over 100 µM.
`O=C(CCC(=O)C1Cc2ccccc2C1=O)Nc1cccc(C(F)(F)F)c1` (stereo unspecified) was tested, and the TGI was over 100 µM.
`O=c1[nH]c(=O)n(C2CC(O)C(O)C(CO)O2)cc1F` (stereo unspecified) gave a TGI of over 100 µM.
`CC(=O)c1c(O)c2c([nH]c1=O)CCCC2` gave a TGI of 59.2 µM.
`O=S(=O)(Cc1ccccc1)SCc1ccccc1` showed a TGI of 36.4 µM.
Work on `Nc1nc(-c2ccccc2)cc(-c2cc(Cl)ccc2O)n1` yielded a TGI of over 100 µM.
In the case of `CC1CCC2c3c([nH]c4ccccc34)C3C(=O)N(c4ccccc4)C(=O)C3C2C1` (stereo unspecified), the TGI is reported as over 250 µM.
In the case of `c1ccc2c(c1)[O][Sn][O]2`, the outcome is reported as “inactive”.
In the case of `COC(=O)c1cc2ccccc2c2nc3ccccc3c(Cl)c12`, the TGI is reported as over 100 µM.
In the case of `Cc1c(C)c2ccc(OC(C)C(=O)O)cc2oc1=O` (stereo unspecified), the TGI is reported as over 100 µM.
In the case of `CC1(C)CC(O)CC(C)(C)N1.CC1(C)CC(O)CC(C)(C)N1.CC1(C)CC(O)CC(C)(C)N1.CC1(C)CC(O)CC(C)(C)N1.Cl.[Ti]`, the GI50 is reported as over 100 µM and the TGI is reported as over 100 µM.
`Nc1c(C(=O)Nc2ccccc2O)[n+]([O-])c2ccccc2[n+]1[O-]` showed a TGI of over 100 µM.
In the case of `Cc1cc(OC(=O)c2c(C)cc(OC(=O)c3c(C)cc(O)cc3O)cc2O)cc(O)c1C(=O)O`, the TGI is reported as over 100 µM.
Compound `O=c1c2ccccc2n2cnc3ccc(NCCNCCO)c1c32` has a TGI of 8.68 µM.
